# In US20030175745A1, “Peptides with growth inhibitory action” (priority 2001, published 2003):
# Where a SMILES comes first, the peptide text is derived from it.
# How the values were obtained:
# NIH3T3-PDGF-ββ cells = test: Growth assay with NIH3T3-PDGF-ββ cells, cell number by PicoGreen DNA; assay type: cell-based; conditions: for inhibition compared to the base medium (BITS): Example 4 (Table 2); for % of control cell growth: 5 days, BITS medium
# Experimental: NIH 3T3 cells transfected with PDGF-ββ (a stable cell line) were obtained from Mount Sinai School of Medicine. These cells overexpress PDGF-ββ and are activated via the PDGF-R in an autocrine fashion. Cells were grown at 37° C. in Dulbecco's Modified Eagles Medium (high glucose) (DMEM) with 10% heat-inactivated fetal calf serum (FCS) with 100 units or μg/ml penicillin/streptomycin with 750 μg/ml G418 sulfate (Geneticin) selection. Cells were incubated in an atmosphere of 5% CO2, and cultures were fed twice weekly. For subcultivation, cells were allowed to attain confluence and washed twice with PBS or Hank's balanced salt solution (minus Ca^++ and Mg^++) before addition of a trypsin/EDTA solution to dislodge the cells. Cells were split anywhere from ¼ to 1/12 into a sterile T-75 Flask depending on the time desired until confluence.
# To identify peptides that inhibit cell growth in culture, candidate peptides were screened in a growth assay with NIH3T3-PDGF-ββ cells. Cells were expanded in DMEM containing G418 as described above. […] Growth medium was removed and the peptide solution added (250 μl/well). Cells were incubated for 5 days without feeding prior to testing. After this time, growth of cells treated with each peptide was compared to growth in control medium (no peptide added).
# Cell number was assessed by measurement of total cellular double-stranded DNA using the PicoGreen Assay Kit (Molecular Probes, Eugene, Oreg., USA, lot #6405-1). For PicoGreen analysis, cell lysates (100 μl ) were added to 100 µl of the dye solution prepared by diluting the PicoGreen dye (1:200 in 1× TE according to the manufacturer's instructions). Plates were read after five minutes in a fluorimeter (irradiated at an excitation wavelength of 485 nm). Fluorescence emission was measured at 530 nm using a CytoFluor Series 4000 (PerSeptive Biosystems, Framingham, Mass.). For correlating DNA level to cell number, a standard curve was established for the NIH3T3-PDGF-ββ cells. For analysis, DNA absorbance/emission was compared to the absorbance/emission shown by a standard curve of DNA.
# PDGF-R = conditions: in the μM range; cited from earlier work
# α-type PDGF-R = α-type PDGF-R (Homo sapiens, UniProt P16234); conditions: high concentrations; cited from earlier work
# PDGF β receptor = PDGF β receptor (Homo sapiens, UniProt P09619); conditions: cited from earlier work
# Chain of PDGF β receptor (P09619 33-1106): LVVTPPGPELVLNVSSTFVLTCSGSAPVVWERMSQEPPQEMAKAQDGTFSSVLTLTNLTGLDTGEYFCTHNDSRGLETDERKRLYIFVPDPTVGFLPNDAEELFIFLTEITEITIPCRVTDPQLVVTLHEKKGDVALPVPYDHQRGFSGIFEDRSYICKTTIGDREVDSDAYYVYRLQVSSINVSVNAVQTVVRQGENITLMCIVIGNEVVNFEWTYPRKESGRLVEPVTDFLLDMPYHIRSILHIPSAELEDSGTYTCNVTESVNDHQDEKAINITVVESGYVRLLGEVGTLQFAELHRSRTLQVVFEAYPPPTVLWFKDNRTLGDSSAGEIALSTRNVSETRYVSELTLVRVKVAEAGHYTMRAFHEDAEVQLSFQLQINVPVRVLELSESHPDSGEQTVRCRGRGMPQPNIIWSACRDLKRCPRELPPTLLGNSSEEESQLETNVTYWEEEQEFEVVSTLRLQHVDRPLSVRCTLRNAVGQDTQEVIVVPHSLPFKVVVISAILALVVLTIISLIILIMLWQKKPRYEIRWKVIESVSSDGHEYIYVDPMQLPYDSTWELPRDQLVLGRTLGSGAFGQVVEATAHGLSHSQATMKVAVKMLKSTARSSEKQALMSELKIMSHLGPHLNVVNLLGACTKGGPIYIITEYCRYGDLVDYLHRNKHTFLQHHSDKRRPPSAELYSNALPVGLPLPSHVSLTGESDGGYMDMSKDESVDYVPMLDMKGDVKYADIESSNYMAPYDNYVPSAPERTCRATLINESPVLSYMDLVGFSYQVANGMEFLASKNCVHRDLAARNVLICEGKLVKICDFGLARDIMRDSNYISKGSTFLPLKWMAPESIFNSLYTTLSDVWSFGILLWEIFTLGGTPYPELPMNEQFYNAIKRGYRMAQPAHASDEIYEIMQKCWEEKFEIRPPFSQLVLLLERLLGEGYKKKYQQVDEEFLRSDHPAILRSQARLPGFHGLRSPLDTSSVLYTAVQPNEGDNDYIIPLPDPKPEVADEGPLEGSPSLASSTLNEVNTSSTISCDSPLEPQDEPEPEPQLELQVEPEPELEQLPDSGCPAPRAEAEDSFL
# Chain of α-type PDGF-R (P16234 24-1089): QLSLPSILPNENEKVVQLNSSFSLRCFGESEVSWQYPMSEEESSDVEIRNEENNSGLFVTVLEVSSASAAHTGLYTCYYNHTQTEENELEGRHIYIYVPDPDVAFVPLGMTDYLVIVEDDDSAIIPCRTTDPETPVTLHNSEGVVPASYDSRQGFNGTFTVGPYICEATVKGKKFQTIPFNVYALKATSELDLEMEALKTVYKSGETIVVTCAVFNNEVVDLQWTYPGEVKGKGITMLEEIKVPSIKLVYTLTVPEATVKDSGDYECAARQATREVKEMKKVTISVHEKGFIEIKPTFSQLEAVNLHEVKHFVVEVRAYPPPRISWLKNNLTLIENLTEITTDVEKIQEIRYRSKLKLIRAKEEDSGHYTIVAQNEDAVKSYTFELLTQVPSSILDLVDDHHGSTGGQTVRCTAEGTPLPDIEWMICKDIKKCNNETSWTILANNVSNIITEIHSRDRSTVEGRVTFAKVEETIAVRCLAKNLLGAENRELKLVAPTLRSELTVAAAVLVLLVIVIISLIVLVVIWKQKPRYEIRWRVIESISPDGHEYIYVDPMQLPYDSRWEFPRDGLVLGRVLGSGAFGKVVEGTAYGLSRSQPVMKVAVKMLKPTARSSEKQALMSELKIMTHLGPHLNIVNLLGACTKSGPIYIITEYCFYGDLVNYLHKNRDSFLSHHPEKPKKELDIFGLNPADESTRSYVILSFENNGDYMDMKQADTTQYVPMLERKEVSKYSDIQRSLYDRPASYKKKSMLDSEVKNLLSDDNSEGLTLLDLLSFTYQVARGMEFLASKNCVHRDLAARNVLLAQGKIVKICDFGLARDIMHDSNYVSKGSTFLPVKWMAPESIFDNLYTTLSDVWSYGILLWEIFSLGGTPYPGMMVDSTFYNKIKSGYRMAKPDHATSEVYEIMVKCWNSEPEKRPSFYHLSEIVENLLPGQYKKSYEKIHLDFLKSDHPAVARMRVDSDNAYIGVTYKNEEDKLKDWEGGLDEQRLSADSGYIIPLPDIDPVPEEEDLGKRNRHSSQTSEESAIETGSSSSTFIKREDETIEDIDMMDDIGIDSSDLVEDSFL
Compound,inhibition compared to the base medium (BITS) (NIH3T3-PDGF-ββ cells; 6 mM peptide) [%],inhibition compared to the base medium (BITS) (NIH3T3-PDGF-ββ cells; 12 mM peptide) [%],"% of control cell growth (NIH3T3-PDGF-ββ cells; Table 2, 1 mM peptide) [%]","% of control cell growth (NIH3T3-PDGF-ββ cells; Table 2, 3 mM peptide) [%]","% of control cell growth (NIH3T3-PDGF-ββ cells; Table 2, 6 mM peptide) [%]","% of control cell growth (NIH3T3-PDGF-ββ cells; Table 2, 12 mM peptide) [%]",growth inhibition in the initial screen of the library (NIH3T3-PDGF-ββ cells),further results
NCCCC[C@H](NC(=O)[C@H](CCCCN)NC(=O)[C@H](CCCCN)NC(=O)[C@@H](N)CCCCN)C(=O)O [KKKK] (H-KKKK-OH),59,82,105,72,41,17,–,"inhibition of cell growth compared to control medium (BITS) (NIH3T3-PDGF-ββ cells; Example 3, KKKK (Bachem) 3 mM): 21%; inhibition of cell growth compared to control medium (BITS) (NIH3T3-PDGF-ββ cells; Example 3, KKKK (Bachem) 6 mM): 36%; % of control cell growth (NIH3T3-PDGF-ββ cells; Table 1, KKKK (Bachem) 3 mM): 78%; % of control cell growth (NIH3T3-PDGF-ββ cells; Table 1, KKKK (Bachem) 6 mM): 65%; % of control cell growth (NIH3T3-PDGF-ββ cells; Table 1, KKKK (Bachem) 12 mM): 39%"
Cc1ccc(C(=O)Nc2ccc(S(=O)(=O)O)c3cc(S(=O)(=O)O)cc(S(=O)(=O)O)c23)cc1NC(=O)c1cccc(NC(=O)Nc2cccc(C(=O)Nc3cc(C(=O)Nc4ccc(S(=O)(=O)O)c5cc(S(=O)(=O)O)cc(S(=O)(=O)O)c45)ccc3C)c2)c1 [suramin],–,–,–,–,–,–,–,inhibition of PDGF binding to PDGF R (PDGF-R): 100%
"DDEEK (printed: ASP ASP GLU GLU LYS) [pentapeptide ASP ASP GLU GLU LYS, from Bachem]",91,84,108,93,11,16,inhibiting growth,relative potency in inhibiting cell growth (NIH3T3-PDGF-ββ cells; 6 mM): most potent inhibitor
"FFFKK (printed: PHE PHE PHE LYS LYS) [pentapeptide PHE PHE PHE LYS LYS, from Bachem]",29,82,111,103,69,18,inhibiting growth,–
"FFHPV (printed: PHE PHE HIS PRO VAL) [pentapeptide PHE PHE HIS PRO VAL, from Bachem]",14,–,116,111,85,–,inhibiting growth,"inhibition compared to the base medium (BITS) (NIH3T3-PDGF-ββ cells; 9.5 mM peptide): 82%; % of control cell growth (NIH3T3-PDGF-ββ cells; Table 2, 9.5 mM peptide): 16%"
"KLMSY (printed: LYS LEU MET SER TYR) [pentapeptide LYS LEU MET SER TYR, from Bachem]",23,91,127,126,76,10,inhibiting growth,–
neomycin,–,–,–,–,–,–,–,inhibition of binding of PDGF-ββ to the α-type PDGF-R (α-type PDGF-R): inhibited; inhibition of binding to the PDGF β receptor (PDGF β receptor): not able to inhibit
